Data published in patent publication US8017612B2, “Piperazine compound and use thereof as a HCV polymerase inhibitor” (priority 2006, dated 2011).

Key:
[1] = molecular target: T1, HCV polymerase (NS5B) type 1a (Hepatitis C virus genotype 1a, UniProt P26664); assay: Assay of enzyme (HCV polymerase) inhibitory activity, type 1a enzyme; type: biochemical, HCV type 1a (cloned from the blood of patients); settings: HCV polymerase inhibitory activity (IC50), 1a, type 1a enzyme 1.5 μg/ml, 25° C., 60 min
T1 construct: made in house; host or cells: Escherichia coli (by the 'similar method' of the 1b enzyme)
Method in brief: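 His-tagged NS5B, C-terminal 47 residues deleted, type 1a at 1.5 μg/ml, with 5 μg/ml HCV 3′UTR substrate RNA, 50 μM ATP/GTP/CTP, 2 μM UTP plus [3H]UTP, pH 7.5 Tris, 5 mM MgCl2; 60 min at 25° C. TCA-precipitated RNA counted by scintillation; IC50 from radioactivity with vs. without compound.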

[2] = molecular target: T2, HCV polymerase (NS5B) type 1b (Hepatitis C virus genotype 1b, UniProt P26663); assay: Assay of enzyme (HCV polymerase) inhibitory activity, type 1b enzyme; type: biochemical, HCV BK strain (type 1b); settings: HCV polymerase inhibitory activity (IC50), 1b, type 1b enzyme 0.5 μg/ml, 25° C., 60 min
T2 construct: a region encoding NS5B (J Virol 1991 March, 65(3), 1105-13, 544 amino acids after deletion of 47 amino acids on the C-terminal); 6xHis (C); made in house; host or cells: Escherichia coli
Method in brief: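 His-tagged, C-terminally truncated NS5B (BK strain, 1b; 0.5 μg/ml) incubated with compound 60 min at 25 °C on 3′UTR-derived substrate RNA (5 μg/ml), 50 μM ATP/GTP/CTP, 2 μM UTP plus [3H]UTP, pH 7.5. Acid-precipitated RNA counted; IC50 from radioactivity with and without compound.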

In the case of `CCCc1ccc(CNC(=O)[C@H]2CN(C(=O)Nc3nc(CC(=O)N4CCOCC4)cs3)CCN2S(=O)(=O)c2ccc(OC(F)(F)F)cc2)cc1` [Example 475, (R)-4-(4-trifluoromethoxy-benzenesulfonyl)-piperazine-1,3-dicarboxylic acid 1-{[4-(2-morpholin-4-yl-2-oxo-ethyl)-thiazol-2-yl]-amide} 3-(4-propyl-benzylamide)], the IC50 [1] is reported as 100 to 1000 nM and the IC50 [2] is reported as < 100 nM.

In the case of `CCCc1ccc(CNC(=O)[C@H]2CN(C(=O)Nc3nc(CCO)cs3)CCN2S(=O)(=O)c2ccc(OC(F)(F)F)cc2)cc1` [Example 476, (R)-4-(4-trifluoromethoxy-benzenesulfonyl)-piperazine-1,3-dicarboxylic acid 1-{[4-(2-hydroxy-ethyl)-thiazol-2-yl]-amide} 3-(4-propyl-benzylamide)], the IC50 [1] is reported as 100 to 1000 nM and the IC50 [2] is reported as 100 to 1000 nM.

With `CCOC(=O)c1nnc(NC(=O)N2CCN(S(=O)(=O)c3ccc(OC(F)(F)F)cc3)[C@@H](C(=O)NCc3ccc(C(F)(F)CC)cc3)C2)s1` [Example 477, 5-{[(R)-3-[4-(1,1-difluoro-propyl)-benzylcarbamoyl]-4-(4-trifluoromethoxy-benzenesulfonyl)-piperazine-1-carbonyl]-amino}-[1,3,4]thiadiazole-2-carboxylic acid ethyl ester] the IC50 [1] was > 1000 nM and the IC50 [2] was > 1000 nM.

`CCCc1ccc(CNC(=O)[C@H]2CN(c3cnc(CO)cn3)CCN2S(=O)(=O)c2ccc(CC)cc2)cc1` [Example 478, (R)-4-(4-ethyl-benzenesulfonyl)-5′-hydroxymethyl-3,4,5,6-tetrahydro-2H-[1,2′]bipyrazinyl-3-carboxylic acid 4-propyl-benzylamide] was tested, and the IC50 [1] was < 100 nM and the IC50 [2] was < 100 nM.

`CCC(F)(F)c1ccc(CNC(=O)[C@H]2CN(C(=O)Cn3nnc(-c4ccccc4)n3)CCN2S(=O)(=O)c2ccc(OC(F)(F)F)cc2)cc1` [Example 479, (R)-4-[2-(5-phenyl-tetrazol-2-yl)-acetyl]-1-(4-trifluoromethoxy-benzenesulfonyl)-piperazine-2-carboxylic acid 4-(1,1-difluoro-propyl)-benzylamide] was tested, and the IC50 [1] was < 100 nM and the IC50 [2] was < 100 nM.

`CCC(F)(F)c1ccc(CNC(=O)[C@H]2CN(C(=O)Cc3cc(C)no3)CCN2S(=O)(=O)c2ccc(OC(F)(F)F)cc2)cc1` [Example 480, (R)-4-[2-(3-methyl-isoxazol-5-yl)-acetyl]-1-(4-trifluoromethoxy-benzenesulfonyl)-piperazine-2-carboxylic acid 4-(1,1-difluoro-propyl)-benzylamide] was tested, and the IC50 [1] was < 100 nM and the IC50 [2] was < 100 nM.

`CC(=O)N1CCN(S(=O)(=O)c2ccc(C(C)C)cc2)[C@@H](C(=O)NCc2ccc(-c3ccoc3)cc2)C1` [Example 481, (R)-4-acetyl-1-(4-isopropyl-benzenesulfonyl)-piperazine-2-carboxylic acid 4-furan-3-yl-benzylamide] was tested, and the IC50 [1] was 100 to 1000 nM and the IC50 [2] was 100 to 1000 nM.

For `CCC(F)(F)c1ccc(CNC(=O)[C@H]2CN(C(=O)Nc3nnc(CO)s3)CCN2S(=O)(=O)c2ccc(OC(F)(F)F)cc2)cc1` [Example 482, (R)-4-(4-trifluoromethoxy-benzenesulfonyl)-piperazine-1,3-dicarboxylic acid 3-[4-(1,1-difluoro-propyl)-benzylamide] 1-[(5-hydroxymethyl-[1,3,4]thiadiazol-2-yl)-amide]], the IC50 [1] was 100 to 1000 nM and the IC50 [2] was < 100 nM.

For `CCC(F)(F)c1ccc(CNC(=O)[C@H]2CN(C(=O)Nc3nnc(C(C)=O)s3)CCN2S(=O)(=O)c2ccc(OC(F)(F)F)cc2)cc1` [Example 483, (R)-4-(4-trifluoromethoxy-benzenesulfonyl)-piperazine-1,3-dicarboxylic acid 1-[(5-acetyl-[1,3,4]thiadiazol-2-yl)-amide] 3-[4-(1,1-difluoro-propyl)-benzylamide]], the IC50 [1] was > 1000 nM and the IC50 [2] was > 1000 nM.

For `CCC(F)(F)c1ccc(CNC(=O)[C@H]2CN(C(=O)Nc3nnc(C(C)(C)O)s3)CCN2S(=O)(=O)c2ccc(OC(F)(F)F)cc2)cc1` [Example 484, (R)-4-(4-trifluoromethoxy-benzenesulfonyl)-piperazine-1,3-dicarboxylic acid 3-[4-(1,1-difluoro-propyl)-benzylamide] 1-{[5-(1-hydroxy-1-methyl-ethyl)-[1,3,4]thiadiazol-2-yl]-amide}], the IC50 [1] was 100 to 1000 nM and the IC50 [2] was < 100 nM.

With `CCCc1ccc(CNC(=O)[C@H]2CN(c3cnc(C(=O)O)cn3)CCN2S(=O)(=O)c2ccc(CC)cc2)c(Cl)c1` [Example 485, (R)-3-(2-chloro-4-propyl-benzylcarbamoyl)-4-(4-ethyl-benzenesulfonyl)-3,4,5,6-tetrahydro-2H-[1,2′]bipyrazinyl-5′-carboxylic acid] the IC50 [1] was < 100 nM and the IC50 [2] was < 100 nM.

For `CCCc1ccc(CNC(=O)[C@H]2CN(c3cc(C)c(C(=O)OC)nn3)CCN2S(=O)(=O)c2ccc(OC(F)(F)F)cc2)cc1` [Example 486, 4-methyl-6-[(R)-3-(4-propyl-benzylcarbamoyl)-4-(4-trifluoromethoxy-benzenesulfonyl)-piperazin-1-yl]-pyridazine-3-carboxylic acid methyl ester], the IC50 [1] was < 100 nM and the IC50 [2] was < 100 nM.

For `CCCc1ccc(CNC(=O)[C@H]2CN(c3cc(C)c(C(=O)O)nn3)CCN2S(=O)(=O)c2ccc(OC(F)(F)F)cc2)cc1` [Example 487, 4-methyl-6-[(R)-3-(4-propyl-benzylcarbamoyl)-4-(4-trifluoromethoxy-benzenesulfonyl)-piperazin-1-yl]-pyridazine-3-carboxylic acid], the IC50 [1] was < 100 nM and the IC50 [2] was < 100 nM.

For `CCC(F)(F)c1ccc(CNC(=O)[C@H]2CN(C(=O)Nc3nnc(C)s3)CCN2S(=O)(=O)c2ccc(OC(F)(F)F)cc2)cc1` [Example 488, (R)-4-(4-trifluoromethoxy-benzenesulfonyl)-piperazine-1,3-dicarboxylic acid 3-[4-(1,1-difluoro-propyl)-benzylamide] 1-[(5-methyl-[1,3,4]thiadiazol-2-yl)-amide]], the IC50 [1] was 100 to 1000 nM and the IC50 [2] was < 100 nM.

In the case of `CCC(F)(F)c1ccc(CNC(=O)[C@H]2CN(C(=O)Nc3nnc(C(F)(F)F)s3)CCN2S(=O)(=O)c2ccc(OC(F)(F)F)cc2)cc1` [Example 489, (R)-4-(4-trifluoromethoxy-benzenesulfonyl)-piperazine-1,3-dicarboxylic acid 3-[4-(1,1-difluoro-propyl)-benzylamide] 1-[(5-trifluoromethyl-[1,3,4]thiadiazol-2-yl)-amide]], the IC50 [1] is reported as > 1000 nM and the IC50 [2] is reported as > 1000 nM.

For `CCC(F)(F)c1ccc(CNC(=O)[C@H]2CN(C(=O)Nc3ccnc(OC)c3)CCN2S(=O)(=O)c2ccc(OC(F)(F)F)cc2)cc1` [Example 490, (R)-4-(4-trifluoromethoxy-benzenesulfonyl)-piperazine-1,3-dicarboxylic acid 3-[4-(1,1-difluoro-propyl)-benzylamide] 1-[(2-methoxy-pyridin-4-yl)-amide]], the IC50 [1] was < 100 nM and the IC50 [2] was 100 to 1000 nM.

With `CCC(F)(F)c1ccc(CNC(=O)[C@H]2CN(C(=O)Nc3ccnc(C(=O)OC(C)(C)C)c3)CCN2S(=O)(=O)c2ccc(OC(F)(F)F)cc2)cc1` [Example 491, 4-{[(R)-3-[4-(1,1-difluoro-propyl)-benzylcarbamoyl]-4-(4-trifluoromethoxy-benzenesulfonyl)-piperazine-1-carbonyl]-amino}-pyridine-2-carboxylic acid tert-butyl ester] the IC50 [1] was < 100 nM and the IC50 [2] was < 100 nM.
